Results on 3 compounds are retold here after patent US4780560A, “Nitrate derivatives and vasodilators containing the same” (priority 1986, dated 1988).

One assay concerns Coronary artery. The experiment in a line: Vasodilating activity: increase in coronary blood flow in anesthetized dogs. It counts as in vivo, Hybrid adult dogs. The settings on record: i.v., n = 3 anesthetized dogs, vs. prior to administration. On the procedure: (§1) A suspension of the compounds produced in the above examples in 0.5% HCO 60 solution was administered through the lateroradial dermal vein. […] As a control drug was employed Cinnepazied (1-[(1-pyrrolidinylcarbonyl)methyl]-4-(3,4,5-trimethyoxycinnamoyl)piperazine).

Another assay has as its system Vertebral artery. The experiment in a line: Vasodilating activity: increase in vertebral blood flow in anesthetized dogs. It counts as in vivo, Hybrid adult dogs. The settings on record: i.v., n = 3 anesthetized dogs, vs. prior to administration. On the procedure:
as §1

In the case of `COc1cc(C=CC(=O)N2CCN(CC(=O)N3CCCC3)CC2)cc(OC)c1OC` [Cinnepazid, 1-[(1-pyrrolidinylcarbonyl)methyl]-4-(3,4,5-trimethyoxycinnamoyl)piperazine, reference compound], the “Increase in blood flow (Δ% ± SE), Coronary artery” value with Coronary artery (0.3 mg/kg) is given as 2.1 ± 0.8 Δ%; with Coronary artery (1.0 mg/kg), 10.0 ± 0.5 Δ%. For the same compound, the results for the “Increase in blood flow (Δ% ± SE), Vertebral artery” value with Vertebral artery (0.3 mg/kg) and in the assay on Vertebral artery (1.0 mg/kg) were 1.5 ± 0.4 Δ% and 5.6 ± 0.2 Δ%, respectively.

For `COc1cc(/C=C/C=C/C(=O)NCCO[N+](=O)[O-])cc(OC)c1OC` [Example 1, N-(β-hydroxyethyl)-5-(3,4,5-trimethoxyphenyl)-2,4-pentadienoic acid amide nitrate], the “Increase in blood flow (Δ% ± SE), Coronary artery” value in the assay with Coronary artery (0.3 mg/kg) is given as 3.6 ± 0.2 Δ%; with Coronary artery (1.0 mg/kg), 28.6 ± 1.9 Δ%. The results for the “Increase in blood flow (Δ% ± SE), Vertebral artery” value in the assay with Vertebral artery (0.3 mg/kg) and in the assay with Vertebral artery (1.0 mg/kg) were 50.0 ± 2.4 Δ% and 83.3 ± 7.5 Δ%, respectively.

Regarding `COc1cc(/C=C/C(=O)NCCO[N+](=O)[O-])cc(OC)c1OC` [Example 2, N-(β-hydroxyethyl)-3,4,5-trimethoxycinnamic acid amide nitrate], the entries for the “Increase in blood flow (Δ% ± SE), Coronary artery” value in the assay with Coronary artery (0.3 mg/kg) and in the assay with Coronary artery (1.0 mg/kg) were 3.8 ± 0.5 Δ% and 22.9 ± 1.5 Δ%, respectively. Moreover, the “Increase in blood flow (Δ% ± SE), Vertebral artery” value is listed as 35.0 ± 1.7 Δ% in the assay on Vertebral artery (0.3 mg/kg) and 58.3 ± 5.3 Δ% in the assay on Vertebral artery (1.0 mg/kg).
